Assay results published in article PMC8982324 (Journal of Extracellular Vesicles, 2022).
No end group written: not given here.

Tests used:
[1] = system: HEK293T‐eGFP cells; assay type: cell-based
[2] = target: T1, full length NMT1 enzyme (Homo sapiens, UniProt P30419); assay: NMT1 activity assay; conditions: synthesized octapeptide; average of three experiments
T1 sequence (P30419 1-496): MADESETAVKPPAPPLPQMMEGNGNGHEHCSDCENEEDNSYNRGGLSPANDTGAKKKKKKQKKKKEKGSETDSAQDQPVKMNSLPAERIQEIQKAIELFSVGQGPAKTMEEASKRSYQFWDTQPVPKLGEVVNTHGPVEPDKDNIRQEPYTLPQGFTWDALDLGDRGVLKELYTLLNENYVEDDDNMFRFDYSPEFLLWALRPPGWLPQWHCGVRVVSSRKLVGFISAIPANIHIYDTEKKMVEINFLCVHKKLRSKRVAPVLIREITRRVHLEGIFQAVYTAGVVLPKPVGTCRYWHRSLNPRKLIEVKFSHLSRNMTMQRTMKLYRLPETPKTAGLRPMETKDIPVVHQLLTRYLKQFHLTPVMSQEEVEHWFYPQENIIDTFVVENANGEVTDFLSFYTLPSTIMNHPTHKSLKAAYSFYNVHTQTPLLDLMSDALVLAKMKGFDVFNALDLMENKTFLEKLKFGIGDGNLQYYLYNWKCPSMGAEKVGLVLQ

| Compound | effect on Cas9 and VSV‐G protein levels in recipient cells [1] | substrate of NMT1 enzyme [2] |
| --- | --- | --- |
| CCN(CC)CCCC(C)Nc1ccnc2cc(Cl)ccc12 (centres unmarked) [chloroquine] | greatly increased |  |
| ASNKSKPK [SRC(G2A)] |  | not a substrate of NMT1 |
